Patent US20100292205A1, “Pyrimidone Compounds As GSK-3 Inhibitors” (PFIZER INC., priority 2006, published 2010)

Each compound was assayed against T1, Recombinant human GSK3β (Homo sapiens, UniProt P49841) (assay: GSK-3β (Glycogen Synthase Kinase) cell free enzyme assay). Conditions: 1 μM; Examples 157-199.
T1 construct: His-tag; made in house; host or cells: Sf9 insect cells / baculovirus
Type: biochemical
Summary of the method: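 This cell-free kinase assay measured [33P] transfer from [33P]ATP gamma phosphate into the biotinylated peptide bio-LC-S-R-H-S-S-P-H-Q-pS-E-D-E-E-E-OH. After 60 min at RT, reactions were stopped with 0.66 volume of PBS lacking Ca or Mg containing 12.5 mM EDTA, 0.25% Triton-X 100, 125 uM ATP and 6.2 mg/ml streptavidin SPA beads. Bead-bound radioactivity was counted as CPM on a Trilux scintillation counter.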

T1 sequence (P49841 whole entry): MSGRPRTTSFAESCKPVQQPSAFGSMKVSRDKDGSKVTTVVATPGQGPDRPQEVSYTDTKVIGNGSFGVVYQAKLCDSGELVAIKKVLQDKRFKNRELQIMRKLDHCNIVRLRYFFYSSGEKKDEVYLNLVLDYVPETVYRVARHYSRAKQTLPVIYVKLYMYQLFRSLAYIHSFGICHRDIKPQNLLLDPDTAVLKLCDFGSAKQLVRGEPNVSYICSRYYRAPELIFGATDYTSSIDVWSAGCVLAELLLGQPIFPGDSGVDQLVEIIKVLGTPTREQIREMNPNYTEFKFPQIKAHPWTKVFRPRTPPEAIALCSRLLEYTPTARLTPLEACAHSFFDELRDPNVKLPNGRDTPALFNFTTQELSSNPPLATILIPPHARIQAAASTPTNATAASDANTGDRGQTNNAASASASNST

Structure (SMILES)	Percent inhibition at 1 μM
CN(c1nc(-c2ccncc2)cc(=O)n1C)C1CCCN(S(=O)(=O)c2ccccc2)CC1 (stereo not shown) [Example 182, 3-Methyl-2-{methyl[1-(phenylsulfonyl)azepan-4-yl]amino}-6-pyridin-4-ylpyrimidin-4(3H)-one]	96%

Same assay, conditions: 1 μM; Examples 157-199; read-out: Percent inhibition at 1 μM

Structure (SMILES)	inhibition at 1 µM
Cn1c(N2CC[C@@H]3CN(S(=O)(=O)Cc4ccccc4)C[C@@H]32)nc(-c2ccncc2)cc1=O [Example 193, 2-[(3a,R6,aR)-5-(Benzylsulfonyl)hexahydro-pyrrolo[34-b]pyrrol-1(2H)-yl]-3-methyl-6-pyridin-4-ylpyrimidin-4(3H)-one]	80%

Same assay, conditions: 1 μM; Examples 201-221; read-out: Percent inhibition at 1 μM

Structure (SMILES)	inhibition at 1 µM
CCN(c1nc(-c2ccncc2)cc(=O)n1C)C1CCCN(C(=O)OC)CC1 (stereo not shown) [Example 215, Methyl 4-[ethyl(1-methyl-6-oxo-4-pyridin-4-yl-16-dihydropyrimidin-2-yl)amino]azepane-1-carboxylate]	93%
COC(=O)N1CC(CNc2nc(-c3ccncc3)cc(=O)n2C)C1 [Example 219, Methyl 3-{[(1-methyl-6-oxo-4-pyridin-4-yl-16-dihydropyrimidin-2-yl)amino]methyl}azetidine-1-carboxylate]	72%
CCN(c1nc(-c2ccncc2)cc(=O)n1C)C1CCN(C(=O)OC)CC1 [Example 217, Methyl 4-[ethyl(1-methyl-6-oxo-4-pyridin-4-yl-16-dihydropyrimidin-2-yl)amino]piperidine-1-carboxylate]	84%

Same assay, conditions: 1 μM; Examples 236-262; read-out: Percent inhibition at 1 μM

Structure (SMILES)	inhibition at 1 µM
CCN(c1nc(-c2ccncc2)cc(=O)n1C)C1CCCN(Cc2ccccc2)CC1 (stereo not shown) [Example 259, 2-[(1-Benzylazepan-4-yl)(ethyl)amino]-3-methyl-6-pyridin-4-ylpyrimidin-4(3H)-one]	83%
CN1C[C@H](F)[C@H](Nc2nc(-c3ccncc3)cc(=O)n2C)C1 [Example 246, 2-{[(3R,4S)-4-Fluoro-1-methylpyrrolidin-3-yl]amino}-3-methyl-6-pyridin-4-ylpyrimidin-4(3H)-one]	67%
CCN(c1nc(-c2ccncc2)cc(=O)n1C)C1CCN(Cc2ccccc2)CC1 [Example 260, 2-[(1-Benzylpiperidin-4-yl)(ethyl)amino]-3′-methyl-6-pyridin-4-ylpyrimidin-4(3H)-one]	44%
Cn1c(N[C@@H]2CC[C@@H](NCc3ccccc3)C2)nc(-c2ccncc2)cc1=O [Example 262, 2-{[(1R,3R)-3-(Benzylamino)cyclopen-tyl]amino}-3-methyl-6-pyridin-4-ylpyrimidin-4(3H)-one]	48%
CCN(c1nc(-c2ccncc2)cc(=O)n1C)C1CCCN(C)CC1 (stereo not shown) [Example 247, 2-[Ethyl(1-methylazepan-4-yl)amino]-3-methyl-6-pyridin-4-ylpyrimidin-4(3H)-one]	78%

Same assay, conditions: 1 μM; GSK-3β cell free enzyme assay; Examples 42-60; read-out: Percent inhibition at 1 μM

Structure (SMILES)	inhibition at 1 µM
CC(=O)N1CCC(CNc2nc(-c3ccncc3)cc(=O)n2C)C1 (stereo not shown) [Example 59, 2-{[(1-Acetylpyrrolidin-3-yl)methyl]amino}-3-methyl-6-pyridin-4-ylpyrimidin-4(3H)-one]	37%
CCN(c1nc(-c2ccncc2)cc(=O)n1C)C1CCN(C(C)=O)CC1 [Example 57, 2-[(1-Acetylpiperidin-4-yl)(ethyl)amino]-3-methyl-6-pyridin-4-ylpyrimidin-4(3H)-one]	93%

Same assay, conditions: cell free enzyme assay; Examples 1-35

Structure (SMILES)	IC50
CN(c1nc(-c2ccncc2)cc(=O)n1C)C1CCCN(C(=O)OC(C)(C)C)CC1 (stereo not shown) [Example 10, tert-butyl 4-[Methyl(1-methyl-6-oxo-4-pyridin-4-yl-1,6-dihydropyrimidin-2-yl)amino]azepane-1-carboxylate]	14.4 nM
Cn1c(N[C@H]2[C@@H]3CN(C(=O)OC(C)(C)C)C[C@@H]32)nc(-c2ccncc2)cc1=O [Example 2, tert-butyl (1R,5S,6s)-6-[(1-Methyl-6-oxo-4-pyridin-4-yl-1,6-dihydropyrimidin-2-yl)amino]-3-azabicyclo[3.1.0] hexane-3-carboxylate]	2.2 nM

Same assay, conditions: cell free enzyme assay; Examples 62-155

Structure (SMILES)	IC50
Cn1c(NC2CCN(C(=O)Cc3ccccc3)CC2)nc(-c2ccncc2)cc1=O [Example 85, 3-Methyl-2-{[1-(phenylacetyl)piperidin-4-yl]amino}-6-pyridin-4-ylpyrimidin-4(3H)-one]	333 nM
Cn1c(NC2CCCN(C(=O)c3ccccc3)C2)nc(-c2ccncc2)cc1=O (stereo not shown) [Example 66, 2-[(1-Benzoylpiperidin-3-yl)amino]-3-methyl-6-pyridin-4-ylpyrimidin-4(3H)-one]	1000 nM
CCN(c1nc(-c2ccncc2)cc(=O)n1C)C1CCN(C(=O)Cc2ccccc2)CC1 [Example 92, 2-{Ethyl[1-(phenylacetyl)piperidin-4-yl]amino}-3-methyl-6-pyridin-4-ylpyrimidin-4(3H)-one]	105 nM
Cn1c(N[C@H]2[C@@H]3CN(C(=O)c4ccccc4)C[C@@H]32)nc(-c2ccncc2)cc1=O [Example 67, 2-{[(1R,5S,6s)-3-Benzoyl-3-azabicyclo[3.1.0]hex-6-yl]amino}-3-methyl-6-pyridin-4-ylpyrimidin-4(3H)-one]	2 nM
CCN(c1nc(-c2ccncc2)cc(=O)n1C)C1CCN(C(=O)c2ccccc2)CC1 [Example 74, 2-[(1-Benzoylpiperidin-4-yl)(ethyl)amino]-3-methyl-6-pyridin-4-ylpyrimidin-4(3H)-one]	144 nM
CN(c1nc(-c2ccncc2)cc(=O)n1C)C1CCN(C(=O)Cc2ccccc2)C1 (stereo not shown) [Example 90, 3-Methyl-2-{methyl[1-(phenylacetyl)pyrrolidin-3-yl]amino}-6-pyridin-4-ylpyrimidin-4(3H)-one]	133 nM
Cn1c(NC2CCN(C(=O)Cc3ccccc3)C2)nc(-c2ccncc2)cc1=O (stereo not shown) [Example 81, 3-Methyl-2-{[1-(phenylacetyl)pyrrolidin-3-yl]amino}-6-pyridin-4-ylpyrimidin-4(3H)-one]	111 nM

Further lines, results first:

IC50	Structure (SMILES)
8.81 nM	CN(c1nc(-c2ccncc2F)cc(=O)n1C)[C@H]1[C@@H]2CN(C(=O)c3ccoc3)C[C@@H]21 [Example 105, 6-(3-Fluoropyridin-4-yl)-2-{[(1R,5S,6s)-3-(3-furoyl)-3-azabicyclo[3.1.0]hex-6-yl](methyl)amino}-3-methylpyrimidin-4(3H)-one]
6.98 nM	CN(c1nc(-c2ccncc2F)cc(=O)n1C)[C@H]1[C@@H]2CN(C(=O)c3ccc(Cl)nc3)C[C@@H]21 [Example 126, 2-[{(1R,5S,6s)-3-[(6-Chloropyridin-3-yl)carbonyl]-3-azabicyclo[3.1.0]hex-6-yl}(methyl)amino]-6-(3-fluoropyridin-4-yl)-3-methylpyrimidin-4(3H)-one]
6.39 nM	CN(c1nc(-c2ccncc2F)cc(=O)n1C)[C@H]1[C@@H]2CN(C(=O)C3CCCC3)C[C@@H]21 [Example 108, 2-{[(1R,5S,6s)-3-(Cyclopentylcarbonyl)-3-azabicyclo[3.1.0]hex-6-yl](methyl)amino}-6-(3-fluoropyridin-4-yl)-3-methylpyrimidin-4(3H)-one]
16.1 nM	Cc1cc(C(=O)N2C[C@@H]3[C@H](C2)[C@H]3N(C)c2nc(-c3ccncc3F)cc(=O)n2C)cc(Cl)n1 [Example 104, 2-{[(1R,5S,6s)-3-(2-Chloro-6-methylisonicotinoyl)-3-azabicyclo[3.1.0]hex-6-yl](methyl)amino}-6-(3-fluoropyridin-4-yl)-3-methylpyrimidin-4(3H)-one]
26.4 nM	CN(c1nc(-c2ccncc2F)cc(=O)n1C)[C@H]1[C@@H]2CN(C(=O)c3ccc(C(F)(F)F)nc3)C[C@@H]21 [Example 154, 6-(3-Fluoropyridin-4-yl)-3-methyl-2-{methyl[(1R,5S,6s)-3-{[6-(trifluoromethyl)pyridin-3-yl]carbonyl}-3-azabicyclo[3.1.0]hex-6-yl]amino}pyrimidin-4(3H)-one]
102 nM	Cc1c(C(=O)N2C[C@@H]3[C@H](C2)[C@H]3N(C)c2nc(-c3ccncc3F)cc(=O)n2C)cnn1-c1ccccc1 [Example 155, 6-(3-Fluoropyridin-4-yl)-3-methyl-2-(methyl{(1R,5S,6s)-3-[(5-methyl-1-phenyl-1H-pyrazol-4-yl)carbonyl]-3-azabicyclo[3.1.0]hex-6-yl}amino)pyrimidin-4(3H)-one]
84.4 nM	COC(=O)CCC(=O)N1C[C@@H]2[C@H](C1)[C@H]2N(C)c1nc(-c2ccncc2F)cc(=O)n1C [Example 129, Methyl 4-[(1R,5S,6s)-6-{[4-(3-fluoropyridin-4-yl)-1-methyl-6-oxo-1,6-dihydropyrimidin-2-yl](methyl)amino}-3-azabicyclo[3.1.0]hex-3-yl]-4-oxobutanoate]

Same assay, conditions: cell free enzyme assay; Examples 265-291

Structure (SMILES)	IC50
CC(C)n1nnnc1N1C[C@@H]2[C@H](C1)[C@H]2N(C)c1nc(-c2ccncc2F)cc(=O)n1C [Example 282, 6-(3-Fluoropyridin-4-yl)-2-{[(1R,5S,6s)-3-(1-isopropyl-1H-tetrazol-5-yl)-3-azabicyclo[3.1.0]hex-6-yl](methyl)amino}-3-methylpyrimidin-4(3H)-one]	3.25 nM
CCOc1cccc(-n2nnnc2N2C[C@@H]3[C@H](C2)[C@H]3N(C)c2nc(-c3ccncc3F)cc(=O)n2C)c1 [Example 286, 2-[{(1R,5S,6s)-3-[1-(3-Ethoxyphenyl)-1H-tetrazol-5-yl]-3-azabicyclo[3.1.0]hex-6-yl}(methyl)amino]-6-(3-fluoropyridin-4-yl)-3-methylpyrimidin-4(3H)-one]	3.2 nM
CN(c1nc(-c2ccncc2F)cc(=O)n1C)[C@H]1[C@@H]2CN(c3nc4cc(C(F)(F)F)ccc4[nH]3)C[C@@H]21 [Example 281, 6-(3-Fluoropyridin-4-yl)-3-methyl-2-(methyl{(1R,5S,6s)-3-[5-(trifluoromethyl)-1H-benzimidazol-2-yl]-3-azabicyclo[3.1.0]hex-6-yl}amino)pyrimidin-4(3H)-one]	36.3 nM
